# Laboratory results from patent US20230085307A1, “PYRIDAZINONE COMPOUND AND HERBICIDE” (NISSAN CHEMICAL CORPORATION, priority 2019, published 2023).
# What was measured:
# late watergrass [1] = assay: Test Example 1: herbicidal activity, application before weed generation under submerged conditions (Table 16, symbol A); format: in vivo, late watergrass (Echinochloa oryzicola); conditions: amount of applied herbicide 320 g/ha
# Summary of the method: (§1)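 Submerged Wagner pots (alluvial soil, 4 cm water) sown with weed seeds and planted with 2.5-leaf rice seedlings; emulsifiable concentrate diluted in water applied to water surface on sowing day. Held in greenhouse at 25-30 °C; injury scored 0-5 by herbicidal rate after three weeks.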
# Japanese bulrush [2] = assay: Test Example 1: herbicidal activity, application before weed generation under submerged conditions (Table 16, symbol B); format: in vivo, Japanese bulrush (Schoenoplectus juncoides); conditions: amount of applied herbicide 320 g/ha
# Summary of the method: as §1
# oval-leafed pondweed [3] = assay: Test Example 1: herbicidal activity, application before weed generation under submerged conditions (Table 16, symbol C); format: in vivo, oval-leafed pondweed (Monochoria vaginalis); conditions: amount of applied herbicide 320 g/ha
# Summary of the method: as §1
# late watergrass [4] = assay: Test Example 2: herbicidal activity, application during weed generation under submerged conditions (Table 17, symbol A); format: in vivo, late watergrass (Echinochloa oryzicola); conditions: AAH 320 g/ha; application during weed generation, submerged conditions
# Summary of the method: (§2)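 Steps: fill Wagner pots with alluvial soil; add water to give 4 cm depth; sow the species mixed; grow under glass at 25–30° C.; at 1–2 leaves apply water-diluted emulsion formulation to the water surface at a fixed herbicide amount; score after 3 weeks.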
# Japanese bulrush [5] = assay: Test Example 2: herbicidal activity, application during weed generation under submerged conditions (Table 17, symbol B); format: in vivo, Japanese bulrush (Schoenoplectus juncoides); conditions: AAH 320 g/ha; application during weed generation, submerged conditions
# Summary of the method: as §2
# oval-leafed pondweed [6] = assay: Test Example 2: herbicidal activity, application during weed generation under submerged conditions (Table 17, symbol C); format: in vivo, oval-leafed pondweed (Monochoria vaginalis); conditions: AAH 320 g/ha; application during weed generation, submerged conditions
# Summary of the method: as §2
# barnyard grass [7] = assay: Test Example 3: herbicidal effect by foliage application, Wagner pot (Table 18, symbol H); format: in vivo, barnyard grass (Echinochloa crus-galli); conditions: for herbicidal effect on H: barnyard grass: amount of applied herbicide 320 g/ha
# Summary of the method: (§3)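 Plants were sown in alluvial soil held under 0.1–0.5 cm standing water and grown 14 days in a greenhouse at 25–30 °C. An emulsifiable formulation, water-diluted to the set dose, was then sprayed onto the foliage, and effects were scored three weeks later using previously defined criteria.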
# Chinese sprangletop = assay: Test Example 3: herbicidal effect by foliage application, Wagner pot (Table 18, symbol D); format: in vivo, chinese sprangletop (Leptochloa chinensis); conditions: for herbicidal effect on D: Chinese sprangletop: amount of applied herbicide 320 g/ha
# Summary of the method: as §3
# rice flat sedge = assay: Test Example 3: herbicidal effect by foliage application, Wagner pot (Table 18, symbol E); format: in vivo, rice flat sedge (Cyperus iria); conditions: for herbicidal effect on E: rice flat sedge: amount of applied herbicide 320 g/ha
# Summary of the method: as §3
# southern crabgrass [8] = assay: Test Example 4: herbicidal effect by soil treatment (Table 19, symbol F); format: in vivo, southern crabgrass (Digitaria ciliaris); conditions: amount of applied herbicide 320 g/ha
# Summary of the method: (§4)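 Emulsion of test compound, water-diluted to predetermined amount, sprayed on soil after sowing (seed depth ~1.5 cm, sterilized diluvial soil). Greenhouse, 25–30° C. Effect graded at three weeks post-spray.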
# green foxtail [9] = assay: Test Example 4: herbicidal effect by soil treatment (Table 19, symbol G); format: in vivo, green foxtail (Setaria viridis); conditions: amount of applied herbicide 320 g/ha
# Summary of the method: as §4
# barnyard grass [10] = assay: Test Example 4: herbicidal effect by soil treatment (Table 19, symbol H); format: in vivo, barnyard grass (Echinochloa crus-galli); conditions: amount of applied herbicide 320 g/ha
# Summary of the method: as §4
# velvetleaf [11] = assay: Test Example 4: herbicidal effect by soil treatment (Table 19, symbol M); format: in vivo, velvetleaf (Abutilon theophrasti); conditions: amount of applied herbicide 320 g/ha
# Summary of the method: as §4
# redroot pigweed [12] = assay: Test Example 4: herbicidal effect by soil treatment (Table 19, symbol N); format: in vivo, redroot pigweed (Amaranthus retroflexus); conditions: amount of applied herbicide 320 g/ha
# Summary of the method: as §4
# lambsquarters [13] = assay: Test Example 4: herbicidal effect by soil treatment (Table 19, symbol O); format: in vivo, lambsquarters (Chenopodium album); conditions: amount of applied herbicide 320 g/ha
# Summary of the method: as §4
# southern crabgrass [14] = assay: Test Example 5: herbicidal effect by foliage application, plastic box (Table 20, symbol F); format: in vivo, southern crabgrass (Digitaria ciliaris); conditions: for F: southern crabgrass, herbicidal effect grade: foliage application, 320 g/ha, three weeks after application
# Summary of the method: (§5)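 Post-emergence foliar test in sterilized diluvial soil. Compound applied as water-diluted emulsion at a predetermined rate to 14-day-old plants; evaluation at three weeks.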
# green foxtail [15] = assay: Test Example 5: herbicidal effect by foliage application, plastic box (Table 20, symbol G); format: in vivo, green foxtail (Setaria viridis); conditions: for G: green foxtail, herbicidal effect grade: foliage application, 320 g/ha, three weeks after application
# Summary of the method: as §5
# barnyard grass [16] = assay: Test Example 5: herbicidal effect by foliage application, plastic box (Table 20, symbol H); format: in vivo, barnyard grass (Echinochloa crus-galli); conditions: for H: barnyard grass, herbicidal effect grade: foliage application, 320 g/ha, three weeks after application
# Summary of the method: as §5
# velvetleaf [17] = assay: Test Example 5: herbicidal effect by foliage application, plastic box (Table 20, symbol M); format: in vivo, velvetleaf (Abutilon theophrasti); conditions: for M: velvetleaf, herbicidal effect grade: foliage application, 320 g/ha, three weeks after application
# Summary of the method: as §5
# redroot pigweed [18] = assay: Test Example 5: herbicidal effect by foliage application, plastic box (Table 20, symbol N); format: in vivo, redroot pigweed (Amaranthus retroflexus); conditions: for N: redroot pigweed, herbicidal effect grade: foliage application, 320 g/ha, three weeks after application
# Summary of the method: as §5
# lambsquarters [19] = assay: Test Example 5: herbicidal effect by foliage application, plastic box (Table 20, symbol O); format: in vivo, lambsquarters (Chenopodium album); conditions: for O: lambsquarters, herbicidal effect grade: foliage application, 320 g/ha, three weeks after application
# Summary of the method: as §5
# wild oat = assay: Test Example 5: herbicidal effect by foliage application, plastic box (Table 20, symbol I); format: in vivo, wild oat (Avena fatua); conditions: amount of applied herbicide 320 g/ha; foliage application after 14-day growth; evaluated three weeks after application
# Summary of the method: as §5
# blackgrass = assay: Test Example 5: herbicidal effect by foliage application, plastic box (Table 20, symbol J); format: in vivo, blackgrass (Alopecurus myosuroides); conditions: amount of applied herbicide 320 g/ha; foliage application after 14-day growth; evaluated three weeks after application
# Summary of the method: as §5
# windgrass = assay: Test Example 5: herbicidal effect by foliage application, plastic box (Table 20, symbol L); format: in vivo, windgrass (Apera spica-venti); conditions: amount of applied herbicide 320 g/ha; foliage application after 14-day growth; evaluated three weeks after application
# Summary of the method: as §5
# chickweed = assay: Test Example 5: herbicidal effect by foliage application, plastic box (Table 20, symbol P); format: in vivo, common chickweed (Stellaria media); conditions: amount of applied herbicide 320 g/ha; foliage application after 14-day growth; evaluated three weeks after application
# Summary of the method: as §5
# persian speedwell = assay: Test Example 5: herbicidal effect by foliage application, plastic box (Table 20, symbol R); format: in vivo, Persian speedwell (Veronica persica); conditions: amount of applied herbicide 320 g/ha; foliage application after 14-day growth; evaluated three weeks after application
# Summary of the method: as §5
# [20] = amount of applied herbicide 320 g/ha, foliage application after 14-day growth, evaluated three weeks after application
SMILES,"Herbicidal effect, A: late watergrass (late watergrass [1])","Herbicidal effect, B: Japanese bulrush (Japanese bulrush [2])","Herbicidal effect, C: oval-leafed pondweed (oval-leafed pondweed [3])","herbicidal effect rating, A: late watergrass (late watergrass [4])","herbicidal effect rating, B: Japanese bulrush (Japanese bulrush [5])","herbicidal effect rating, C: oval-leafed pondweed (oval-leafed pondweed [6])",herbicidal effect on H: barnyard grass (barnyard grass [7]),herbicidal effect on D: Chinese sprangletop (Chinese sprangletop),herbicidal effect on E: rice flat sedge (rice flat sedge),"herbicidal effect, F: southern crabgrass (southern crabgrass [8])","herbicidal effect, G: green foxtail (green foxtail [9])","herbicidal effect, H: barnyard grass (barnyard grass [10])","herbicidal effect, M: velvetleaf (velvetleaf [11])","herbicidal effect, N: redroot pigweed (redroot pigweed [12])","herbicidal effect, O: lambsquarters (lambsquarters [13])","F: southern crabgrass, herbicidal effect grade (southern crabgrass [14])","G: green foxtail, herbicidal effect grade (green foxtail [15])","H: barnyard grass, herbicidal effect grade (barnyard grass [16])","M: velvetleaf, herbicidal effect grade (velvetleaf [17])","N: redroot pigweed, herbicidal effect grade (redroot pigweed [18])",further results
COCCOc1ccc(-c2sc3ccc(F)cc3c2-c2c(O)c(Cl)nn(C)c2=O)cc1 [2-440],3 (Herbicidal rate of 40% or more and less than 70%),4 (Herbicidal rate of 70% or more and less than 90%),3 (Herbicidal rate of 40% or more and less than 70%),3 (Herbicidal rate of 40% or more and less than 70%),3 (Herbicidal rate of 40% or more and less than 70%),3 (Herbicidal rate of 40% or more and less than 70%),5 (Herbicidal rate of 90% or more (almost completely withered)),0 (Herbicidal rate of 5% or less (almost no effect)),0 (Herbicidal rate of 5% or less (almost no effect)),3 (Herbicidal rate of 40% or more and less than 70%),5 (Herbicidal rate of 90% or more (almost completely withered)),3 (Herbicidal rate of 40% or more and less than 70%),4 (Herbicidal rate of 70% or more and less than 90%),5 (Herbicidal rate of 90% or more (almost completely withered)),5 (Herbicidal rate of 90% or more (almost completely withered)),5 (Herbicidal rate of 90% or more (almost completely withered)),5 (Herbicidal rate of 90% or more (almost completely withered)),5 (Herbicidal rate of 90% or more (almost completely withered)),5 (Herbicidal rate of 90% or more (almost completely withered)),5 (Herbicidal rate of 90% or more (almost completely withered)),"O: lambsquarters, herbicidal effect grade (lambsquarters [19]): 5 (Herbicidal rate of 90% or more (almost completely withered))"
COCC[S+]([O-])c1ccc(-c2sc3ccc(F)cc3c2-c2c(O)c(C)nn(C)c2=O)cc1 (centres unmarked) [2-454],3 (Herbicidal rate of 40% or more and less than 70%),0 (Herbicidal rate of 5% or less (almost no effect)),0 (Herbicidal rate of 5% or less (almost no effect)),2 (Herbicidal rate of 20% or more and less than 40%),0 (Herbicidal rate of 5% or less (almost no effect)),0 (Herbicidal rate of 5% or less (almost no effect)),5 (Herbicidal rate of 90% or more (almost completely withered)),2 (Herbicidal rate of 20% or more and less than 40%),5 (Herbicidal rate of 90% or more (almost completely withered)),5 (Herbicidal rate of 90% or more (almost completely withered)),5 (Herbicidal rate of 90% or more (almost completely withered)),4 (Herbicidal rate of 70% or more and less than 90%),3 (Herbicidal rate of 40% or more and less than 70%),5 (Herbicidal rate of 90% or more (almost completely withered)),4 (Herbicidal rate of 70% or more and less than 90%),5 (Herbicidal rate of 90% or more (almost completely withered)),5 (Herbicidal rate of 90% or more (almost completely withered)),5 (Herbicidal rate of 90% or more (almost completely withered)),5 (Herbicidal rate of 90% or more (almost completely withered)),5 (Herbicidal rate of 90% or more (almost completely withered)),"O: lambsquarters, herbicidal effect grade (lambsquarters [19]): 5 (Herbicidal rate of 90% or more (almost completely withered))"
CCCC(=O)Oc1c(C)nn(C)c(=O)c1-c1c(-c2ccc(C(F)(F)F)cc2)sc2cc(F)c(F)cc12 [5-008],3 (Herbicidal rate of 40% or more and less than 70%),0 (Herbicidal rate of 5% or less (almost no effect)),0 (Herbicidal rate of 5% or less (almost no effect)),2 (Herbicidal rate of 20% or more and less than 40%),0 (Herbicidal rate of 5% or less (almost no effect)),0 (Herbicidal rate of 5% or less (almost no effect)),,,,,,,,,,,,,,,"herbicidal effect on barnyard grass (H) (barnyard grass [7]; 320 g/ha): 4 (Herbicidal rate of 70% or more and less than 90%); herbicidal effect on Chinese sprangletop (D) (Chinese sprangletop; 320 g/ha): 0 (Herbicidal rate of 5% or less (almost no effect)); herbicidal effect on rice flat sedge (E) (rice flat sedge; 320 g/ha): 0 (Herbicidal rate of 5% or less (almost no effect)); Herbicidal effect by foliage application, F: southern crabgrass (southern crabgrass [14]; [20]): 0 (Herbicidal rate of 5% or less (almost no effect)); Herbicidal effect by foliage application, G: green foxtail (green foxtail [15]; [20]): 0 (Herbicidal rate of 5% or less (almost no effect)); Herbicidal effect by foliage application, H: barnyard grass (barnyard grass [16]; [20]): 0 (Herbicidal rate of 5% or less (almost no effect)); Herbicidal effect by foliage application, I: wild oat (wild oat): 0 (Herbicidal rate of 5% or less (almost no effect)); Herbicidal effect by foliage application, J: blackgrass (blackgrass): 0 (Herbicidal rate of 5% or less (almost no effect)); Herbicidal effect by foliage application, L: windgrass (windgrass): 1 (Herbicidal rate of 5% or more and less than 20%); Herbicidal effect by foliage application, M: velvetleaf (velvetleaf [17]; [20]): 0 (Herbicidal rate of 5% or less (almost no effect)); Herbicidal effect by foliage application, N: redroot pigweed (redroot pigweed [18]; [20]): 3 (Herbicidal rate of 40% or more and less than 70%); Herbicidal effect by foliage application, O: lambsquarters (lambsquarters [19]; [20]): 3 (Herbicidal rate of 40% or more and less than 70%); Herbicidal effect by foliage application, P: chickweed (chickweed): 4 (Herbicidal rate of 70% or more and less than 90%); Herbicidal effect by foliage application, R: persian speedwell (persian speedwell): 3 (Herbicidal rate of 40% or more and less than 70%)"
